Consider 2 compounds from paper PMC2441954, “Phase I pharmacokinetic and pharmacodynamic study of the prenyl transferase inhibitor AZD3409 in patients with advanced cancer” (British Journal of Cancer, 2008).

Like-named read-outs stand apart in the source and are kept apart here.

Data set [1] is described as follows: Plasma pharmacokinetics (LC-MS/MS, noncompartmental) in phase I patients. Type of data set: in vivo, human. The note with it: for Cmax / AUC: human, plasma, oral; for AUC: read-out: AUC0−τ. As to the method: Pharmacokinetic studies were performed in all patients. Ethylenediaminetetraacetic acid blood samples were collected during the first cycle: on day 1 before the first drug intake and 0.5, 1, 2, 4, 6, 8, 12 and 24 h after administration; on days 3, 8 and 15 before the morning drug intake and 2 h after administration; and on day 22 before the morning drug intake and 0.5, 1, 2, 4, 6, 8, 12 and 24 h after administration. Samples were immediately put on ice and centrifuged at 4°C for 10 min at 1500 g. The resulting plasma was stored at −70°C until analysis. Plasma samples of the last three patients were not measured as the study was stopped before analysis.
The total plasma concentrations of AZD3409 ester and AZD3409 acid were determined by LC–MS/MS. The plasma samples were treated with dithiothreitol to reduce any disulphide bonds. The sample pretreatment was based on protein precipitation with acidic acetonitrile. Isotopically labelled analogues were used as internal standards. The method has been validated regarding selectivity, accuracy, precision and stability in human plasma. The lower limit of quantification was 3 ng ml^−1 for both AZD3409 ester and AZD3409 acid, with a 50 μl sample volume.
The following PK parameters were determined, either by direct observation or by noncompartmental analysis (WinNonlin, version 5.0.1; Pharsight, Mountain View, CA, USA): the minimal plasma concentration (Cmin), the maximal plasma concentration (Cmax), the area under the curve within one dosing interval (AUC0−τ) and total plasma clearance (Cl/F). Correlations between dose and Cmax levels and between dose and AUC0−τ were analysed on day 1 using the nonparametric Spearman's ρ (Rs) correlation test. Accumulation was tested with an exact Wilcoxon's rank paired signed test. Linear measures mixed effects models were constructed with SAS (SAS Institute Inc., Cary, NC, USA) to determine the effect of the dose on the trough plasma concentrations of both metabolites. The daily dose, time (days), gender and age were considered to be a fixed effect, and the patient variable was considered to be a random effect. Owing to the distribution of the trough plasma concentration log transformation was applied.

Another data set addresses T1, FTase (Homo sapiens, UniProt P49356).
T1 construct: endogenous in cells; host or cells: peripheral blood mononuclear cells (PBMCs) of treated patients, lysed
The data set can be described thus: FTase activity in PBMC lysates of patients (lamin B or K-Ras substrate), PK/PD Emax model. Type of data set: in vivo. The method, then:
Prior to and 2 h after intake on days 1, 2 (only predose), 8 and 22, whole-blood samples of 22.5 ml were collected in heparinised tubes for FTase activity determination in peripheral blood mononuclear cells (PBMCs). Within 30 min, the PBMC fraction was isolated using Accuspin tubes (Sigma). The cell pellet was resuspended in 100 μl lysis buffer (PBS containing 1% (v/v) Triton X-100, 0.5% (w/v) sodium deoxycholate, 0.1% (w/v) sodium dodecylsulphate and 1% (v/v) aprotinin) and stored at −70°C.
FTase activity was measured by adding 5 μl of PBMC lysate, 5 μl of lysis buffer and 10 μl of water to each well. The lysates were preincubated for 10 min prior to the addition of 20 μl of substrate solution (either lamin B or K-Ras). The reaction was initiated by the addition of 10 μl of radiolabelled farnesylpyrophosphate (fpp). The wells were incubated for 40 min at 37°C. The reaction was stopped by the addition of 100 μl of 1.5 M HCl in ethanol. The wells were stored at 4°C for 1 h and then processed using the Tomtec Harvester 96. The filter plates were dried at 37°C for 15 min, 0.35 μl MicroScint was added to each filter well and the radioactivity was counted. Each lysate was analysed in triplicate. Blanks consisted of the same reaction mixture without the substrate.
Linear mixed effects models were constructed to determine the effect of time on the enzyme activity levels. In these models, the daily dose, number of applications, time (days), measurement pre- or postdrug intake, gender and age were considered to be a fixed effect, and the patient variable was considered to be a random effect. Owing to the distribution of the response variables, square root variables were applied. Statistical analysis was performed with SAS. To determine the correlation of the dose level and the enzyme inhibition, a baseline was added to the described models.
Pharmacokinetic-pharmacodynamic correlations between the active acid metabolite and decrease in FTase activity were fitted with WinNonlin software. Only patients with a basal FTase activity that was higher than 10 pg fpp per mg protein per min were included in the model. This cutoff value was arbitrary and was chosen based on the available data (lamin B; mean: 28.0, SD: 14.2, median: 27.8, 25% percentile: 19.1 and K-Ras; mean: 29.3, SD: 17.8, median: 25.6, 25% percentile: 16.7). The decision to set a minimum baseline FTase activity implicates that the model can only be used for patients with a minimum FTase activity of 10 pg fpp per mg protein per min.

[2] abbreviates: 500 mg once daily, day 1, dose 500 (once daily), N=3, mean (SD).
Where [3] appears, read: 500 mg once daily, day 22, dose 500 (once daily), N=2, absolute values.
Setting [4] is: 750 mg b.i.d., day 1, dose 750 b.i.d., N=8, mean (SD).
Where [5] appears, read: 750 mg b.i.d., day 22, dose 750 b.i.d., N=3, mean (SD).
The mark [6] stands for this setting: 1000 mg once daily, day 1, dose 1000 (once daily), N=3, mean (SD).
[7] abbreviates: 1000 mg once daily, day 22, dose 1000 (once daily), N=3, mean (SD).
Where [8] appears, read: 1250 mg b.i.d., day 1, dose 1250 b.i.d., N=6, mean (SD).
Setting [9] is: 1250 mg b.i.d., day 22, dose 1250 b.i.d., N=4, mean (SD).
[10] abbreviates: 1500 mg b.i.d., day 1, dose 1500 b.i.d., N=2, absolute values.
[11] abbreviates: 1750 mg b.i.d., day 1, dose 1750 b.i.d., N=4, mean (SD).
Setting [12] is: 1750 mg b.i.d., day 22, dose 1750 b.i.d., N=1.

Turning to `CSCC[C@H](NC(=O)c1cc(NC[C@@H]2C[C@H](S)CN2)ccc1CCc1ccc(F)cc1)C(=O)O` [AZD3409 acid], the “mean time at which Cmax was reached” value in data set [1] (cycle 1, plasma) is reported as 2.7 h. The “Spearman correlation (Rs) between dose and AUC” value in data set [1] (day 1) was determined as 0.52. In addition, the “Spearman correlation (Rs) between dose and Cmax” value in data set [1] (day 1) was determined as 0.43. Moreover, the Cl/F result in data set [1] (day 22, dose 500 (once daily), N=2, absolute values) was “[465–488] l h^−1”; in data set [1] (day 22, dose 750 b.i.d., N=3, mean (SD)) it was 473 (155) l h^−1; in data set [1] (day 22, dose 1000 (once daily), N=3, mean (SD)) it was 710 (148) l h^−1; in data set [1] (day 22, dose 1250 b.i.d., N=4, mean (SD)), 785 (311) l h^−1; in data set [1] (day 22, dose 1750 b.i.d., N=1), 1706 L/h. Moreover, the “Ratio AUC0−τ day 22/day 1” value was “[2.07–10.1]” in data set [1] (dose 500 (once daily), N=2, absolute values); 9.29 (11.2) in data set [1] (dose 750 b.i.d., N=3, mean (SD)); 2.10 (1.19) in data set [1] (dose 1000 (once daily), N=3, mean (SD)); 1.95 (1.05) in data set [1] (dose 1250 b.i.d., N=4, mean (SD)); 1.23 in data set [1] (dose 1750 b.i.d., N=1). Further, the Cmax is 33.6 ng/mL in data set [1] (setting [2]); 95.9 to 111 ng/mL in data set [1] (setting [3]); 93.8 ng/mL in data set [1] (setting [4]); 138 ng/mL in data set [1] (setting [5]); 78.6 ng/mL in data set [1] (setting [6]); 106 ng/mL in data set [1] (setting [7]). In addition, the Cmax was 119 ng/mL in data set [1] (setting [8]); 168 ng/mL in data set [1] (setting [9]); 83.5 to 148 ng/mL in data set [1] (setting [10]); 140 ng/mL in data set [1] (setting [11]); 165 ng/mL in data set [1] (setting [12]). The AUC in data set [1] (setting [2]) was 160 ng·h/mL; in data set [1] (setting [3]) it was 712 to 775 ng·h/mL; in data set [1] (setting [4]), 468 ng·h/mL; in data set [1] (setting [5]), 934 ng·h/mL; in data set [1] (setting [6]), 512 ng·h/mL; in data set [1] (setting [7]), 904 ng·h/mL. Besides, the AUC in data set [1] (setting [8]) is 677 ng·h/mL; in data set [1] (setting [9]), 1230 ng·h/mL; in data set [1] (setting [10]), 458 to 749 ng·h/mL; in data set [1] (setting [11]) it was 751 ng·h/mL; in data set [1] (setting [12]), 466 ng·h/mL. The “mean trough total AZD3409 acid concentrations” value in data set [1] (twice daily dosing levels) was 36.3 to 81.9 ng/mL. Further, the “plasma concentration at which 90% of the maximal biological effect is reached” value on FTase (Emax model for lamin B) is listed as “approximately 100 ng ml^−1”. Further, at FTase (Emax model, lamin B substrate, PBMC lysate, day 1, 2 h after intake, read-out: EC50 (plasma concentration at 50% of maximal FTase inhibition) (converted)), the EC50 was 18.8 nM. On FTase (human, Emax model, lamin B substrate, PBMC lysate, day 1, 2 h after intake, vs AZD3409 acid plasma concentration, read-out: maximal effect (Emax), maximal FTase inhibition), the Emax was found to be 49 ± 11%. The “share of the maximally achievable FTase inhibition at mean trough concentrations” value at FTase (twice daily dosing levels, Emax model lamin B) is listed as “at least 75%”.

Consider `CSCC[C@H](NC(=O)c1cc(NC[C@@H]2C[C@H](SC(=O)c3cccnc3)CN2)ccc1CCc1ccc(F)cc1)C(=O)OC(C)C` [AZD3409], for which the “appearance of parent drug in blood” value in data set [1] (after oral administration, rapidly metabolised in the gut and plasma to AZD3409 ester) is reported as “does not appear in the blood”. The “degree of FTase inhibition in PBMCs after intake vs prior to intake” value on FTase (each day, lamin B and K-Ras substrates, mixed effects model) is given as “significantly higher than prior to intake”.
